Consider one compound from patent US20230190717A1, “P38 GAMMA INHIBITORS AND METHOD OF USE THEREOF” (City of Hope, priority 2017, published 2023).

Assay [1] concerns normal CD4+ T cells from healthy donors. Nature of the assay: Cell viability, healthy CD4+ T cells. It counts as cell-based, human. To be noted: 100 nM. Here is the method:
Compound, Samples, and Cell Culture: […] Isolation of PBMCs or CD4^+T cells from both patients and healthy donors and culture of CTCL cell lines (Hut78, HH, and H9) were performed as previously described.

The subject of assay [2] is Hut78 cells. Nature of the assay: NanoString RNA gene expression profiling, Hut78. It counts as cell-based, human. To be noted: 50 nM, 10 h. Here is the method: All samples were validated. Data were analyzed using nSolver 3.0 digital analyzer software and R program.
Assay [3] has as its system Hut78 cells. Put plainly: CellTiterGlo cell viability, Hut78. It counts as cell-based, human. On the technique in general: In ATP-based viability assays light output follows the ATP content of the culture.
Method: Viability assays using trypan blue exclusion and CellTiterGlo Cell Viability Assay: Cell viability was calculated by diluting cell suspensions 1:1 in 0.4% TRYPAN BLUE solution (Sigma, St. Louis, Mo.) and counting the number of viable cells using a TC20™ automated cell counter (Bio-Rad, Irvine, Calif.) that automatically excludes the number of non-viable cells stained with trypan blue per total cells. […] All data points are an average of triplicate experiments.
Absorbance was monitored at 490 nm using an automated BMG PHERAstar plate reader (BMG Labtech). […] All experiments are repeated in three independent experiments and data represented are the average of triplicate experiments.
Another assay deals with HH cells. Put plainly: HH cell proliferation (cell number). It is filed as cell-based, human. The settings on record: 100 nM and 300 nM, four days.
The target in a further assay is T1, p38β (Homo sapiens, UniProt Q15759).
T1 construct: human recombinant p38 α, β, γ or δ protein (active full-length); purchased SignalChem; host or cells: baculovirus in Sf9 insect cells
T1 sequence (Q15759 whole entry): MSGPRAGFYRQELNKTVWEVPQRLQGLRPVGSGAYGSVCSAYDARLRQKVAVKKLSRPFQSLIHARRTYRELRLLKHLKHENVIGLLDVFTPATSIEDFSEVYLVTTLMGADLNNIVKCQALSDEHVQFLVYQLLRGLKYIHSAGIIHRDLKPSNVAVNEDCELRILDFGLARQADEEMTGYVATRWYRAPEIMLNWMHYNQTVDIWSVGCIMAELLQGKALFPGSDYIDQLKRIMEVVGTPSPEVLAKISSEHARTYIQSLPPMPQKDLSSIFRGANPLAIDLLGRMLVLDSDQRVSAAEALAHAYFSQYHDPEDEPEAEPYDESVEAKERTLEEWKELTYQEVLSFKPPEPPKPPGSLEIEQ
Put plainly: ADP-Glo in vitro kinase assay, p38β. It is filed as biochemical. On the procedure:
Kinase assay in vitro: Kinase enzyme assays in vitro were performed using ADP-Glo kit (Promega, Wis.). The luminescent ADP-Glo kinase assay measures ADP produced from ATP consumption in a kinase enzyme reaction. All compounds have been tested and shown no inhibition to luciferase activities. Briefly, in this experiment, human recombinant p38 α, β, γ or δ protein (active full-length) expressed by baculovirus in sf9 insect cells (SignalChem, Vancouver, Canada) was homogenized in wells of white opaque 96-well microplates with the kinase buffer that consisted of 40 mM Tris-HCl (pH 7.5), 20 mM MgCl2, 0.1 mg/mL BSA and 50 μM DTT. […] Next, synthetic peptide substrates ([…]) were added to the mixture at final concentration of 0.2 μg/μL, followed by adding ATP at various concentrations. The 50 μL mixture was reacted at room temperature for 60 min. […]
In vitro kinase assay (ADP-GLO): We identified p38γ inhibitors using in vitro kinase assay by screening a library of kinase inhibitors: The library consists of 244 compounds on three plates (EMD Cat #539744, #539745, and #539746) that are mostly ATP mimics. […] IC50 values were determined using […] software (Biosoft, Cambridge, United Kingdom).
(In general: ADP-Glo turns the ADP formed in a reaction into a luminescent signal.)

For another assay, the target named is T2, p38δ (Homo sapiens, UniProt O15264).
T2 sequence (O15264 1-365): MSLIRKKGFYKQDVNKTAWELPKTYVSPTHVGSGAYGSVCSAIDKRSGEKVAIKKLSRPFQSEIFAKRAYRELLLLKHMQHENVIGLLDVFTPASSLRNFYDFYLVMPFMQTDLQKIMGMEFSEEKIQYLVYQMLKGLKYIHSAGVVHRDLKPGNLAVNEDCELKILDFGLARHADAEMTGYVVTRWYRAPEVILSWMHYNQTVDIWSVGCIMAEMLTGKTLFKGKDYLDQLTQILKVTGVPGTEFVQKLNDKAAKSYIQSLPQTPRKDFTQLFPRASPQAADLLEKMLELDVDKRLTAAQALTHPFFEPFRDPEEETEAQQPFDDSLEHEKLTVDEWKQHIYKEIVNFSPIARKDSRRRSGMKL
Put plainly: Radiometric in vitro kinase assay (SignalChem), p38 δ. More on the design: purchased SignalChem (assay service). It is filed as biochemical. To be noted: 50 nM.

In the next assay the test system is SS patient cells. Nature of the assay: Cell viability, SS patient cells. It counts as cell-based, human. To be noted: SS patient cells (n=2), 100 nM. Here is the method:
Compound, Samples, and Cell Culture: […] Isolation of PBMCs or CD4^+T cells from both patients and healthy donors and culture of CTCL cell lines (Hut78, HH, and H9) were performed as previously described. […] IC50 values were determined using […] software (Biosoft).

Assay [4] deals with phosphorylation of DLGH1 at Ser158. Put plainly: Western blot of pDLGH1-Ser158 in CTCL cells. It is filed as cell-based, human. To be noted: SS cells, Hut78 and H9 cells; 50-100 nM. A general note: Immunoblotting shows a protein as a band on a membrane.
Method: Western blot: Western blots were performed as described previously [5]. Rabbit primary antibodies (Cell Signaling Technology (CST), Danvers, Mass.) were used at the following dilutions: anti-p38α, -p38β, -p38γ, and -p38δ (1:1000), anti-B-tubulin (1:2000), anti-p38 GAPDH 1:1000. […] For detection of p38γ protein level in SS patient samples we used a monoclonal antibody that close to N-terminus of human p38γ MAPK (SAPK3) from Abcam ((ab205926).

SMILES strings stand for the structures.

Method for p38δ: Radiometric in vitro kinase assay: Radiometric in vitro kinase assay was performed by [sequence]

The term inhibition denotes the drop in the measured response relative to a control, in per cent. Take `Cc1ccc([N+](=O)[O-])cc1S(=O)(=O)N(C)/N=C/c1cnc2ccc(Br)cn12` [Compound 1]: the cell viability entry in assay [1] was “spared”; with Hut78 cells [3] (Hut78, 100 nM) it was “significantly reduced viability”; in the assay with SS patient cells, “significantly reduced viability”. Further, the Activation z-score was −3.109 with Hut78 cells [2] (IL-6 Signaling); −3.623 with Hut78 cells [2] (NF-kB signaling); −3.108 with Hut78 cells [2] (PI3K signaling); −0.63 in the assay with Hut78 cells [2] (PI3KI/AKT signaling); 1.25 in the assay with Hut78 cells [2] (PTEN); −3.962 with Hut78 cells [2] (Role of NFAT in regulation of the immune response). Further, the Activation z-score is reported as −3.533 with Hut78 cells [2] (Th1 pathway), −2.236 in the assay on Hut78 cells [2] (Th2 pathway) and 1.152 with Hut78 cells [2] (Wnt/B-catenin signaling). Further, the “effect on viability of Hut78 cells” value with Hut78 cells [3] (varying concentrations, 72 hr) is given as “dose-dependent inhibition of cell viability”. Moreover, in the assay on HH cells, the “proliferation of HH cells” value is given as “sufficiently reduced proliferation”. The “dose-dependent inhibition of kinase activity” value on p38β is reported as “not”. On p38δ, the inhibition at 0.05 µM was found to be 5.4%. Moreover, the “phosphorylation of DLGH1 at Ser158” value in assay [4] is recorded as “inhibited phosphorylation of DLGH1 at Ser158”.
